Assay results as given in US8354424B2, “Method of treating actinic keratosis” (Medicis Pharmaceutical Corporation, priority 2005, dated 2013).

Tested on: actinic keratosis lesions
Assay: Randomized, double-blind study, eight-week treatment period, topical cream on actinic keratosis lesions on the head
Type: in vivo, human
Conditions: formulation with about 0.3 wt-% compound, twice per week, about 8 weeks, compared to other formulations or regimens
Protocol: A randomized, double-blind study was performed to evaluate single and multi-weekly doses of the formulations prepared above topically applied to actinic keratosis lesions on the head.
Otherwise healthy white (n=280) subjects (15% female, 85% male) ranging in ages 38 to 89 years of age (median age of 66.5), inclusive, with actinic keratosis lesions on the head were enrolled in the study. […] The actinic keratosis lesions areas were on the scalp (36%) and face (64%).
The study included an eight-week treatment period followed by an eight-week post-treatment period. […]
Subjects completed interval visits at treatment initiation, 1, 2, 4, and 8 weeks after treatment was initiated and at four and eight-weeks after the end of treatment. Subjects were monitored for erythema and other treatment site conditions during the entire 16 weeks of the study. Erythema, as assessed by study investigators, was defined as intense, moderate, mild, or no redness of the skin at the treatment site and given an intensity score of severe, moderate, mild, or none, respectively.
At the eight-week post-treatment visit, the treatment area was clinically evaluated for actinic keratosis lesions. Efficacy was measured as complete clearance of actinic keratosis lesions and partial clearance of actinic keratosis lesions at the eight-week post-treatment visit. […]

Cc1nc2c(N)nc3cccnc3c2n1CC(C)C [2-methyl-1-(2-methylpropyl)-1H-imidazo[4,5-c][1,5]naphthyridin-4-amine]
side effects: a low level of side effects
